Data reported in patent publication EP0726263A2, “Herbicidal (1,3,4)oxadiazoles and thiadiazoles” (American Cyanamid Company, priority 1995, dated 1996).

Key:
Assay type in all cases: in vivo
Abutilon theophrasti [1] = assay: Herbicidal activity, preemergence test; settings: pre; sprayed onto soil, 800 g of active material per hectare; evaluated 3 weeks after treatment
How it was run: (§1)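 Scored visually on a 0-9 scale against untreated sown soil 3 weeks after application. Seeds freshly sown in prepared loam received a soil spray of 800 g/ha active material, applied as a water-diluted acetone solution with 0.4% TRITON X-155 at 900 L/ha.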

Alopecurus myosuroides [2] = assay: Herbicidal activity, preemergence test; settings: pre; sprayed onto soil, 800 g of active material per hectare; evaluated 3 weeks after treatment
How it was run: as §1

Amaranthus retroflexus [3] = assay: Herbicidal activity, preemergence test; settings: pre; sprayed onto soil, 800 g of active material per hectare; evaluated 3 weeks after treatment
How it was run: as §1

Ambrosia artemisifolia [4] = assay: Herbicidal activity, preemergence test; settings: pre; sprayed onto soil, 800 g of active material per hectare; evaluated 3 weeks after treatment
How it was run: as §1

Chenopodium album [5] = assay: Herbicidal activity, preemergence test; settings: pre; sprayed onto soil, 800 g of active material per hectare; evaluated 3 weeks after treatment
How it was run: as §1

Galium aparine [6] = assay: Herbicidal activity, preemergence test; settings: pre; sprayed onto soil, 800 g of active material per hectare; evaluated 3 weeks after treatment
How it was run: as §1

Glycine max [7] = assay: Herbicidal activity, preemergence test; settings: pre; sprayed onto soil, 800 g of active material per hectare; evaluated 3 weeks after treatment
How it was run: as §1

Gossypium hirsutum [8] = assay: Herbicidal activity, preemergence test; settings: pre; sprayed onto soil, 800 g of active material per hectare; evaluated 3 weeks after treatment
How it was run: as §1

Hordeum vulgare [9] = assay: Herbicidal activity, preemergence test; settings: pre; sprayed onto soil, 800 g of active material per hectare; evaluated 3 weeks after treatment
How it was run: as §1

Ipomoea hederacea [10] = assay: Herbicidal activity, preemergence test; settings: pre; sprayed onto soil, 800 g of active material per hectare; evaluated 3 weeks after treatment
How it was run: as §1

Lamium purpureum [11] = assay: Herbicidal activity, preemergence test; settings: pre; sprayed onto soil, 800 g of active material per hectare; evaluated 3 weeks after treatment
How it was run: as §1

Matricaria inodora [12] = assay: Herbicidal activity, preemergence test; settings: pre; sprayed onto soil, 800 g of active material per hectare; evaluated 3 weeks after treatment
How it was run: as §1

Papaver rhoeas [13] = assay: Herbicidal activity, preemergence test; settings: pre; sprayed onto soil, 800 g of active material per hectare; evaluated 3 weeks after treatment
How it was run: as §1

Setaria viridis [14] = assay: Herbicidal activity, preemergence test; settings: pre; sprayed onto soil, 800 g of active material per hectare; evaluated 3 weeks after treatment
How it was run: as §1

Stellaria media [15] = assay: Herbicidal activity, preemergence test; settings: pre; sprayed onto soil, 800 g of active material per hectare; evaluated 3 weeks after treatment
How it was run: as §1

Triticum aestivum [16] = assay: Herbicidal activity, preemergence test; settings: pre; sprayed onto soil, 800 g of active material per hectare; evaluated 3 weeks after treatment
How it was run: as §1

Veronica persica [17] = assay: Herbicidal activity, preemergence test; settings: pre; sprayed onto soil, 800 g of active material per hectare; evaluated 3 weeks after treatment
How it was run: as §1

Zea mays [18] = assay: Herbicidal activity, preemergence test; settings: pre; sprayed onto soil, 800 g of active material per hectare; evaluated 3 weeks after treatment
How it was run: as §1

Abutilon theophrasti [19] = assay: Herbicidal activity, postemergence test; settings: post; sprayed onto seedling plants, 800 g of active material per hectare; evaluated 2 weeks after treatment
How it was run: (§2)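 First, test compound in acetone containing 0.4% Triton X-155 is diluted with water. Next, it is sprayed at 800 g/ha (900 L/ha) onto freshly seeded loam (pre) or onto seedlings (post). Finally, plants are scored 0-9 visually after 3 or 2 weeks, respectively.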

Alopecurus myosuroides [20] = assay: Herbicidal activity, postemergence test; settings: post; sprayed onto seedling plants, 800 g of active material per hectare; evaluated 2 weeks after treatment
How it was run: as §2

Amaranthus retroflexus [21] = assay: Herbicidal activity, postemergence test; settings: post; sprayed onto seedling plants, 800 g of active material per hectare; evaluated 2 weeks after treatment
How it was run: as §2

Ambrosia artemisifolia [22] = assay: Herbicidal activity, postemergence test; settings: post; sprayed onto seedling plants, 800 g of active material per hectare; evaluated 2 weeks after treatment
How it was run: as §2

Chenopodium album [23] = assay: Herbicidal activity, postemergence test; settings: post; sprayed onto seedling plants, 800 g of active material per hectare; evaluated 2 weeks after treatment
How it was run: as §2

Galium aparine [24] = assay: Herbicidal activity, postemergence test; settings: post; sprayed onto seedling plants, 800 g of active material per hectare; evaluated 2 weeks after treatment
How it was run: as §2

Glycine max [25] = assay: Herbicidal activity, postemergence test; settings: post; sprayed onto seedling plants, 800 g of active material per hectare; evaluated 2 weeks after treatment
How it was run: as §2

Gossypium hirsutum [26] = assay: Herbicidal activity, postemergence test; settings: post; sprayed onto seedling plants, 800 g of active material per hectare; evaluated 2 weeks after treatment
How it was run: as §2

Hordeum vulgare [27] = assay: Herbicidal activity, postemergence test; settings: post; sprayed onto seedling plants, 800 g of active material per hectare; evaluated 2 weeks after treatment
How it was run: as §2

Ipomoea hederacea [28] = assay: Herbicidal activity, postemergence test; settings: post; sprayed onto seedling plants, 800 g of active material per hectare; evaluated 2 weeks after treatment
How it was run: as §2

Lamium purpureum [29] = assay: Herbicidal activity, postemergence test; settings: post; sprayed onto seedling plants, 800 g of active material per hectare; evaluated 2 weeks after treatment
How it was run: as §2

Matricaria inodora [30] = assay: Herbicidal activity, postemergence test; settings: post; sprayed onto seedling plants, 800 g of active material per hectare; evaluated 2 weeks after treatment
How it was run: as §2

Papaver rhoeas [31] = assay: Herbicidal activity, postemergence test; settings: post; sprayed onto seedling plants, 800 g of active material per hectare; evaluated 2 weeks after treatment
How it was run: as §2

Setaria viridis [32] = assay: Herbicidal activity, postemergence test; settings: post; sprayed onto seedling plants, 800 g of active material per hectare; evaluated 2 weeks after treatment
How it was run: as §2

Stellaria media [33] = assay: Herbicidal activity, postemergence test; settings: post; sprayed onto seedling plants, 800 g of active material per hectare; evaluated 2 weeks after treatment
How it was run: as §2

Triticum aestivum [34] = assay: Herbicidal activity, postemergence test; settings: post; sprayed onto seedling plants, 800 g of active material per hectare; evaluated 2 weeks after treatment
How it was run: as §2

Veronica persica [35] = assay: Herbicidal activity, postemergence test; settings: post; sprayed onto seedling plants, 800 g of active material per hectare; evaluated 2 weeks after treatment
How it was run: as §2

Zea mays [36] = assay: Herbicidal activity, postemergence test; settings: post; sprayed onto seedling plants, 800 g of active material per hectare; evaluated 2 weeks after treatment
How it was run: as §2

Row | SMILES | ABUTH control rating (0-9) (Abutilon theophrasti [1]) | ALOMY control rating (0-9) (Alopecurus myosuroides [2]) | AMARE control rating (0-9) (Amaranthus retroflexus [3]) | AMBEL control rating (0-9) (Ambrosia artemisifolia [4]) | CHEAL control rating (0-9) (Chenopodium album [5]) | GALAP control rating (0-9) (Galium aparine [6]) | GLXMA control rating (0-9) (Glycine max [7]) | GOSHI control rating (0-9) (Gossypium hirsutum [8]) | HORVW control rating (0-9) (Hordeum vulgare [9]) | IPOHE control rating (0-9) (Ipomoea hederacea [10]) | LAMPU control rating (0-9) (Lamium purpureum [11]) | MATIN control rating (0-9) (Matricaria inodora [12]) | PAPRH control rating (0-9) (Papaver rhoeas [13]) | SETVI control rating (0-9) (Setaria viridis [14]) | STEME control rating (0-9) (Stellaria media [15]) | TRZAW control rating (0-9) (Triticum aestivum [16]) | VERPE control rating (0-9) (Veronica persica [17]) | ZEAMX control rating (0-9) (Zea mays [18]) | ABUTH control rating (0-9) (Abutilon theophrasti [19]) | ALOMY control rating (0-9) (Alopecurus myosuroides [20]) | other results
1 | C[C@H](NC(=O)c1nnc(-c2c(F)cccc2F)o1)c1ccccc1 [Example 24] | 7 (good herbicidal effect) | 2 (slight effect) | 9 (complete kill) | 3 (moderate effect) | 8 (approaching complete kill) | 0 (no effect) | 0 (no effect) | 0 (no effect) | 0 (no effect) | 2 (slight effect) | 7 (good herbicidal effect) | 9 (complete kill) | 9 (complete kill) | 8 (approaching complete kill) | 8 (approaching complete kill) | 0 (no effect) | 9 (complete kill) | 0 (no effect) | 9 (complete kill) | 2 (slight effect) | AMARE control rating (0-9) (Amaranthus retroflexus [21]): 9 (complete kill); AMBEL control rating (0-9) (Ambrosia artemisifolia [22]): 8 (approaching complete kill); CHEAL control rating (0-9) (Chenopodium album [23]): 9 (complete kill); GALAP control rating (0-9) (Galium aparine [24]): 5 (definite injury); GLXMA control rating (0-9) (Glycine max [25]): 4 (injury); GOSHI control rating (0-9) (Gossypium hirsutum [26]): 8 (approaching complete kill); HORVW control rating (0-9) (Hordeum vulgare [27]): 2 (slight effect); IPOHE control rating (0-9) (Ipomoea hederacea [28]): 5 (definite injury); LAMPU control rating (0-9) (Lamium purpureum [29]): 8 (approaching complete kill); MATIN control rating (0-9) (Matricaria inodora [30]): 4 (injury); PAPRH control rating (0-9) (Papaver rhoeas [31]): 6 (herbicidal effect); SETVI control rating (0-9) (Setaria viridis [32]): 6 (herbicidal effect); STEME control rating (0-9) (Stellaria media [33]): 8 (approaching complete kill); TRZAW control rating (0-9) (Triticum aestivum [34]): 3 (moderate effect); VERPE control rating (0-9) (Veronica persica [35]): 9 (complete kill); ZEAMX control rating (0-9) (Zea mays [36]): 2 (slight effect)
2 | C[C@H](NC(=O)c1nnc(-c2c(Cl)cccc2Cl)o1)c1ccccc1 [Example 25] | 0 (no effect) | 0 (no effect) | 3 (moderate effect) | 0 (no effect) | 0 (no effect) | 0 (no effect) | 0 (no effect) | 0 (no effect) | 0 (no effect) | 0 (no effect) | 0 (no effect) | 0 (no effect) | 3 (moderate effect) | 0 (no effect) | 0 (no effect) | 0 (no effect) | 0 (no effect) | 0 (no effect) | 1 (trace effect) | 0 (no effect) | AMARE control rating (0-9) (Amaranthus retroflexus [21]): 5 (definite injury); AMBEL control rating (0-9) (Ambrosia artemisifolia [22]): 0 (no effect); CHEAL control rating (0-9) (Chenopodium album [23]): 5 (definite injury); GALAP control rating (0-9) (Galium aparine [24]): 0 (no effect); GLXMA control rating (0-9) (Glycine max [25]): 1 (trace effect); GOSHI control rating (0-9) (Gossypium hirsutum [26]): 0 (no effect); HORVW control rating (0-9) (Hordeum vulgare [27]): 0 (no effect); IPOHE control rating (0-9) (Ipomoea hederacea [28]): 1 (trace effect); LAMPU control rating (0-9) (Lamium purpureum [29]): 1 (trace effect); MATIN control rating (0-9) (Matricaria inodora [30]): 0 (no effect); PAPRH control rating (0-9) (Papaver rhoeas [31]): 2 (slight effect); SETVI control rating (0-9) (Setaria viridis [32]): 0 (no effect); STEME control rating (0-9) (Stellaria media [33]): 0 (no effect); TRZAW control rating (0-9) (Triticum aestivum [34]): 0 (no effect); VERPE control rating (0-9) (Veronica persica [35]): 0 (no effect); ZEAMX control rating (0-9) (Zea mays [36]): 0 (no effect)
